Laboratory results taken from patent US8188133B2, “Imidazole derivatives, preparation and user thereof as medicine” (Ipsen Pharma S.A.S., priority 2006, dated 2012).

| Structure (SMILES) | melting point [°C] |
| --- | --- |
| Cl.NS(=O)(=O)Nc1ccc(Oc2ccc(-c3c[nH]c(COc4ccccc4)n3)cc2)cc1F | 185 to 187 |
| CCCCNC(=O)Nc1ccc(Oc2ccc(-c3c[nH]c(COc4ccccc4)n3)cc2)cc1.O=C(O)C(F)(F)F | 85 to 87 |
| Cc1ccc(NC(=O)Nc2ccc(Oc3ccc(-c4c[nH]c(COc5ccccc5)n4)cc3)cc2)cc1 [Example 1, N-(4-methylphenyl)-N′-(4-{4-[2-(phenoxymethyl)-1H-imidazol-4-yl]phenoxy}phenyl)urea] | 192 to 194 |
| NC(=O)Nc1ccc(Oc2ccc(-c3c[nH]c(COc4ccccc4)n3)cc2)cc1 [Example 3, N-(4-{4-[2-(phenoxymethyl)-1H-imidazol-4-yl]phenoxy}phenyl)urea] | 200 to 202 |
| CC(C)NC(=O)Nc1ccc(Oc2ccc(-c3c[nH]c(COc4ccccc4)n3)cc2)cc1 [Example 7, N-isopropyl-N′-(4-{4-[2-(phenoxymethyl)-1H-imidazol-4-yl]phenoxy}phenyl)urea] | 184 to 186 |
| O=C(Nc1ccccc1)Nc1ccc(Oc2ccc(-c3c[nH]c(COc4ccccc4)n3)cc2)cc1 [Example 8, N-(4-{4-[2-(phenoxymethyl)-1H-imidazol-4-yl]phenoxy}phenyl)-N′-phenylurea] | 146 to 148 |

Continued, values first:

| melting point [°C] | Structure (SMILES) |
| --- | --- |
| 178 to 180 | CCNC(=S)Nc1ccc(Oc2ccc(-c3c[nH]c(COc4ccccc4)n3)cc2)cc1 [Example 4, N-ethyl-N′-(4-{4-[2-(phenoxymethyl)-1H-imidazol-4-yl]phenoxy}phenyl)thiourea] |
| 105 to 107 | CCNC(=S)Nc1ccc(Oc2ccc(-c3c[nH]c(COc4ccccc4)n3)cc2)cc1F [Example 5, N-ethyl-N′-(2-fluoro-4-{4-[2-(phenoxymethyl)-1H-imidazol-4-yl]phenoxy}phenyl)thiourea] |
| 171 to 173 | NC(=S)Nc1ccc(Oc2ccc(-c3c[nH]c(COc4ccccc4)n3)cc2)cc1F [Example 6, N-(2-fluoro-4-{4-[2-(phenoxymethyl)-1H-imidazol-4-yl]phenoxy}phenyl)thiourea] |
| 139 to 141 | N#CN=C(N)Nc1ccc(Oc2ccc(-c3c[nH]c(COc4ccccc4)n3)cc2)cc1F [Example 12, N″-cyano-N-(2-fluoro-4-{4-[2-(phenoxymethyl)-1H-imidazol-4-yl]phenoxy}phenyl)guanidine] |
| 193 to 195 | NC(=N[N+](=O)[O-])Nc1ccc(Oc2ccc(-c3c[nH]c(COc4ccccc4)n3)cc2)cc1F [Example 13, N-(2-fluoro-4-{4-[2-(phenoxymethyl)-1H-imidazol-4-yl]phenoxy}phenyl)-N″-nitroguanidine] |
